From patent publication US9499790B2, “Method for promoting differentiation of pluripotent stem cells into cardiac muscle cells” (Kyoto University, priority 2010, dated 2016)

Assays:
[1] = system: Wnt signaling target genes in human iPS cells; experiment: Gene expression analysis by DNA array and quantitative polymerase chain reaction; type: cell-based; details: FIG. 9
Protocol: (in the order of the genes whose expression were reduced most 12 hours later) HOXA1, MSGN1, NKD1, T, TNFRSF11B, DKK1, DKK4, CDX2, MSX1, NODAL, FGF4, PAPPA, PRRX1, LRAT, CYP1B1, SLC34A2, AXIN2, LGL1, SPS, MIXL1, APCDD1 and DSEL. […] The analyzed genes were as follows: MSGN1, HOXA1; T, MIXL1; Dkk1, AXIN2; NODAL and FGF4 (all known as Wnt signaling target genes).

Monkey ES cells = experiment: Cardiac muscle cell differentiation of monkey ES cells, 6-well plate, GFP expression observed at day 14; type: cell-based; details: for effect of BIO on the compound's effect of cardiac muscle cell differentiation (GFP expression): BIO 5 μM added together with the compound during day 4 to 10; for effect of BIO on the compound's effect of cardiac muscle cell differentiation (GFP expression) / increase in the GFP expression level: GFP at day 14
From the text: In the same manner as Example 2, the effects of promoting cardiac muscle cell differentiation were compared among KY02111 and N11474, known Wnt signaling inhibitors (IWP2, XAV939 and IWR1), proteins known to be effective in promoting cardiac muscle cell differentiation (G-CSF, IGFBP4, Dkk1 and cytokines (a mixture of bFGF, BMP4, VEGF, DKK1 and Activin A)).
The effect of BIO, a Wnt signaling activator, on the effect of promoting cardiac muscle cell differentiation of KY02111, XAV939 and IWP2 was analyzed. […]

[2] = system: monkey ES cells (CMK 6.4 cynomolgus monkey ES cell line); experiment: Cardiac muscle cell differentiation of monkey ES cells, compound day 4 to 8, GFP fluorescence at day 10 (MetaMorph); type: cell-based; details: for effect of promoting cardiac muscle cell differentiation, SO2031 versus SO3042: 0.4 μM and 2 μM, separate experiment; for effect of promoting cardiac muscle cell differentiation, carbon chain length (n) series: FIG. 16; for effect compared to SO3031 (KY01-I): low dose (0.1 μM)
From the text: Compounds substituted at the position R7 of Formula 1, which corresponds to Cl of KY02111, were synthesized and examined for the effect of promoting cardiac muscle cell differentiation in a dose-dependent manner in monkey ES cells as described in Example 2. Specifically, a vector expressing green fluorescent protein (GFP) under control of promoter of α-MHC gene, a marker of cardiac muscle cell differentiation, was introduced into monkey ES cells (CMK 6.4 cynomolgus monkey ES cell line) and the cells were seeded on 6-well culture plates (Asahi Glass/5816-006: Ezview culture plate) in 4.0×10^5 cells/well, and cultured in an IMDM-based differentiation medium for cardiac muscle cells (200 ml IMDM (Sigma) containing 50 ml bovine fetal serum (GIBCO), 2.5 ml MEM non-essential amino acid solution (Sigma), 2.5 ml penicillin-streptomycin (GIBCO), 2.5 ml 200 mM L-glutamine, 2 μl 2-mercaptoethanol). Each compound was added to the cells during day 4 to day 8 of the cardiac muscle cell differentiation culture, and the GFP fluorescence was analyzed at day 10 by using MetaMorph imaging system.

[3] = Solubility in medium (observation of crystals); type: physicochemical; details: after 24 hours
Protocol: SO2031 (KY02-I) was dissolved in 20% serum-containing medium (200 ml IMDM (Sigma) containing 50 ml bovine fetal serum (GIBCO), 2.5 ml MEM non-essential amino acid solution (Sigma), 2.5 ml penicillin-streptomycin (GIBCO), 2.5 ml 200 mM L-glutamine, 2 μl 2-mercaptoethanol) at 20 μM, and in serum-free medium (200 ml IMDM (Sigma) containing 2.5 ml MEM non-essential amino acid solution (Sigma), 2.5 ml penicillin-streptomycin (GIBCO), 2.5 ml 200 mM L-glutamine, 2 μl 2-mercaptoethanol) at 3 or 20 μM and observed after 24 hours (FIG. 20). […] As the compound is not crystallized, the concentration of the compound in the medium is stably maintained. Also, there is no possibility that the crystals affect the cells, and there is no risk that the crystals remained in the cells are transferred to and affect the host at transplantation.

human ES cells (KhES-3) = experiment: Percentage of cardiac muscle cells by flow cytometry with cardiac troponin T (cTnT) antibody; type: cell-based; details: 2 μM during days 3-8; 3 μM CHIR99021 first two days; without compound 17.9%
Protocol: (§1) The effect of promoting cardiac muscle cell differentiation of SO2031 (KY02-I) was confirmed using human ES cells (KhES-3) and iPS cells (IMR90-1) (FIG. 19). Induction of cardiac muscle cell differentiation was performed as described previously (Cell Reports, Volume 2, Issue 5, 1448-1460, 25 Oct. 2012). Specifically, IMDM (Sigma) containing 1% MEM non-essential amino acid solution (Sigma), 1% penicillin-streptomycin (Gibco), 2 mM L-glutamine (Sigma), 0.5 mM L-carnitine (Sigma), 0.001% 2-mercaptoethanol (Gibco), and 0.4% human serum albumin (Sigma) was used for culture. Cardiac muscle cell differentiation was induced in Ultra-low attachment culture dish (Corning) by floating culture. During the first two days, 3 μM CHIR99021, a WNT activator, was added, and during days 3-8 of culture, 2 μM SO2031 (KY02-I) was added. Efficiency of cardiac muscle cell differentiation was determined by calculating the percentage of cardiac muscle cells by flow cytometry using an antibody for cardiac troponin T (cTnT), a cardiac-specific marker molecule.

[4] = system: human iPS cells (IMR90-1); experiment: as above; type: cell-based; details: 2 μM during days 3-8; 3 μM CHIR99021 first two days; without compound 3.7%
Protocol: as §1

[5] = nitrovin 1 μM during day 8 to 12, singly

O=C1Nc2cc(Br)ccc2/C1=C1/Nc2ccccc2/C1=N\O [BIO, reference compound]
expressions of MSGN1, HOXA1, T, MIXL1, Dkk1, AXIN2, NODAL and FGF4 (Wnt signaling target genes) by qPCR [1]: increased

Cc1ccc2nc(NC(=O)CSc3nc4c(c(=O)n3-c3ccccc3)SCC4)sc2c1 [IWP2, reference compound]
expressions of MSGN1, HOXA1, T, MIXL1, Dkk1, AXIN2, NODAL and FGF4 (Wnt signaling target genes) by qPCR [1]: reduced
effect of BIO on the compound's effect of cardiac muscle cell differentiation (GFP expression) (Monkey ES cells): inhibited

COc1ccc(CCC(=O)Nc2nc3ccc([N+](=O)[O-])cc3s2)cc1OC [KY01042, 2-(3-(3,4-dimethoxyphenyl)propanamide)-6-nitrobenzothiazole]
increase in the GFP expression level (Monkey ES cells; 10 μM during day 4 to 10): 7000%

COc1ccc(CCC(=O)Nc2nc3ccc(I)cc3s2)cc1OC [SO2031, 2-(3-(3,4-dimethoxyphenyl)propanamid)-6-iodobenzothiazole]
effect of promoting cardiac muscle cell differentiation, times higher than that of KY02111 ([2]; 0.1 μM): about 16 times
effect of promoting cardiac muscle cell differentiation, times higher than that of SO087 ([2]; 0.1 μM): about 5.2 times
effect of promoting cardiac muscle cell differentiation, SO2031 versus SO3042 ([2]; 0.1 μM, FIG. 17): comparable effect
effect of promoting cardiac muscle cell differentiation, times higher than that of KY02111 ([2]; 1 μM): ~6.3 times
effect of promoting cardiac muscle cell differentiation, times higher than that of SO087 ([2]; 1 μM): ~2 times
effect of promoting cardiac muscle cell differentiation, times higher than that of KY02111 ([2]; 10 μM): ~2.1 times
effect of promoting cardiac muscle cell differentiation, times higher than that of SO087 ([2]; 10 μM): ~1.6 times
effect of promoting cardiac muscle cell differentiation, times higher than that of KY02111 ([2]; 30 μM): ~1.5 times
effect of promoting cardiac muscle cell differentiation, times higher than that of SO087 ([2]; 30 μM): ~1.1 times
effect of promoting cardiac muscle cell differentiation, carbon chain length (n) series [2]: higher effect compared to KY02111
effect compared to SO3031 (KY01-I) [2]: 2.7 times
crystals in medium ([3]; 20% serum-containing medium at 20 μM, serum-free medium at 3 or 20 μM): Large crystals were not observed
crystals in medium ([3]; serum-free medium, 3 μM): almost no crystal was observed
ratio of cardiac muscle cells (cTnT) (human ES cells (KhES-3)): 77.9%
ratio of cardiac muscle cells (cTnT) [4]: 56.8%

COc1ccc(CC(=O)Nc2nc3ccc(I)cc3s2)cc1OC [SO3031, 2-(2-(3,4-dimethoxyphenyl)acetamide)-6-iodobenzothiazole]
effect of promoting cardiac muscle cell differentiation, carbon chain length (n) series [2]: higher effect compared to KY02111

COc1ccc(CCCC(=O)Nc2nc3ccc(I)cc3s2)cc1OC [SO3042, 2-(4-(3,4-dimethoxyphenyl)butamide)-6-iodobenzothiazole]
effect of promoting cardiac muscle cell differentiation, SO2031 versus SO3042 ([2]; 0.1 μM, FIG. 17): comparable effect
effect of promoting cardiac muscle cell differentiation, carbon chain length (n) series [2]: higher effect compared to KY02111
effect compared to SO2031 (KY02-I) ([2]; high dose (10 μM or 30 μM)): 1.3 times
effect of promoting cardiac muscle cell differentiation, SO3042 versus SO2031 ([2]; higher dose (10 μM), FIG. 17): slightly higher than that of SO2031
effect compared to SO3031 (KY01-I) [2]: 2.8 times

Oc1nc(-c2ccc(C(F)(F)F)cc2)nc2c1CSCC2 [XAV939, reference compound]
expressions of MSGN1, HOXA1, T, MIXL1, Dkk1, AXIN2, NODAL and FGF4 (Wnt signaling target genes) by qPCR [1]: reduced
effect of BIO on the compound's effect of cardiac muscle cell differentiation (GFP expression) (Monkey ES cells): inhibited

N=C(N)NN=C(/C=C/c1ccc([N+](=O)[O-])o1)/C=C/c1ccc([N+](=O)[O-])o1 [nitrovin, reference compound]
increase in the GFP expression level (Monkey ES cells; 5 μM during day 8 to 14): about 400%
increase in the GFP expression level versus Control (DMSO) (Monkey ES cells; [5]): about 3 times
proportion of beating colonies (Monkey ES cells; [5]): about 16%
ratio of number of GFP colonies (Monkey ES cells; [5]): about 22%

B1: G-CSF: granulocyte-colony stimulating factor (protein, UniProt P09919 31-207, looked up)
Granulocyte …: TPLGPASSLPQSFLLKCLEQVRKIQGDGAALQEKLVSECATYKLCHPEELVLLGHSLGIPWAPLSSCPSQALQLAGCLSQLHSGLFLYQGLLQALEGISPELGPTLDTLQLDVADFATTIWQQMEELGMAPALQPTQGAMPAFASAFQRRAGGVLVASHLQSFLEVSYRVLRHLAQP
increase in the GFP expression level (Monkey ES cells; 5 ng/ml during day 4 to 10): about 250%
